Results from patent US7759339B2, “Hydroxysteroid dehydrogenase inhibitors” (Takeda San Diego, Inc., priority 2005, dated 2010).

Target: T1, 11b-HSD1 (Homo sapiens, UniProt P28845)
T1 construct: made in house; host or cells: E. coli DH10b-Tir
Assay: in vitro enzymatic 11b-HSD1 dehydrogenase activity assay
Format: biochemical
Details: 11b-HSD1 dehydrogenase assay; 10 μM each of cortisol and NADP+, 50 nM enzyme, 60 minutes at room temperature; reference point for this assay
Method: Provided below is an in vitro enzymatic 11b-HSD1 dehydrogenase activity assay for activity against 11b-HSD1.
The inhibitory properties of compounds relative to 11b-HSD1 may be determined using a white 384-well-plate format under the following reaction conditions: 50 mM Tris pH 7.5, 150 mM NaCl, 0.1 mM EDTA, 0.01% Brij35, 10 μM each of cortisol and NADP^+, 1% DMSO. Reaction product may be determined quantitatively by fluorescence intensity using a fluorescence plate reader (Molecular Devices Gemini) with a 340 nm excitation wavelength and a 460 nm emission wavelength.
The assay reaction may be initiated as follows: 4 μl buffer containing 25 μM cortisol and 25 μM NADP^+ was added to each well of the plate, followed by the addition of 2 μl of inhibitor (2 fold serial dilutions for 11 data points for each inhibitor) containing 5% DMSO. 4 μl of 125 nM 11b-HSD1 enzyme solution may be added to initiate the reaction (final enzyme concentrations was 50 nM). Fluorescence intensities of the resulting reaction mixtures may be measured after 60 minutes incubation at room temperature.
IC50 values may be calculated by non-linear curve fitting of the compound concentrations and fluorescence intensities to the standard IC50 equation.

T1 sequence (P28845 24-292): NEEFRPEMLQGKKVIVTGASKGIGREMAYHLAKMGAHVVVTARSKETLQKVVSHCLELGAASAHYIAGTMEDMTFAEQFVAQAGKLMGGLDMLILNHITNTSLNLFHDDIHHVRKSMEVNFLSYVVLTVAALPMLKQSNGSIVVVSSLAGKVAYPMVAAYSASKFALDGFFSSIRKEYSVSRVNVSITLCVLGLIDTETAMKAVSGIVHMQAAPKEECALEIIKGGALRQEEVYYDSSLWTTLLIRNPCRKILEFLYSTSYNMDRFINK

Q: For CCN(CC)C(=O)Cc1csc(NS(=O)(=O)c2cccc(Cl)c2C)n1 [BVT14225], which IC50 is on record?
A: Its IC50 is 500 nM.
